Legend:
[1] = Hygroscopicity at room temperature (weight gain and visual phase transition after 24 hours at controlled RH); type: physicochemical
Protocol: Hygroscopicity of salts of invention were measured by placing 20-50 mg of the sample in an uncapped scintillation vial. The vial was stored at ambient temperature in a Pyrex brand desiccator (VWR, International, CT). […] The relative humidity was confirmed using a digital hygrometer pen (VWR International, CT). An empty scintillation vial was also placed in the desiccator as a control. […] Visual observation of phase transition was also noted.

[2] = Glass transition temperature (Tg) by modulated differential scanning calorimetry (mDSC); type: physicochemical; settings: for Tg (° C.) First heating / Tg (° C.) Second heating: mDSC, precipitated salts of Compound 1; for Tg (° C.) First heating: first heating cycle; for Tg (° C.) Second heating: second heating cycle (intrinsic Tg in dry state); for Tg (° C.): spray dried salts (from acetone)
Protocol: Modulated differential scanning calorimetry (mDSC) was used to characterize salts of the invention. Solid samples were placed in hermetically sealed aluminum pan with a pinhole. Modulation amplitude of ±0.8° C. with a period of 60 sec was applied to the sample heated at 2° C./min under dried nitrogen purge using TA instruments (New Castle, Del., USA) model 1000.
Heat-cool-heat cycles were applied to allow for moisture evaporation during first heating cycle and to erase thermal history of the sample, which allowed for the determination of the intrinsic glass transition temperature (Tg) in dry state.

[3] = 55% RH, room temperature, 24 hours
[4] = 55% RH, room temperature, 24 hours, visual observation
[5] = 75% RH, room temperature, 24 hours
[6] = 75% RH, room temperature, 24 hours, visual observation

Row | Molecule | % weight gain [1, 3] | Phase transition [1, 4] | % weight gain [1, 5] | Phase transition [1, 6] | Tg (° C.) First heating [2] | Tg (° C.) Second heating [2] | Phase transition ([1]; spray dried salts, 55% RH) | Weight gain at 55% RH RH (%) ([1]; spray dried salts, 55% RH) | Phase transition ([1]; spray dried salts, 75% RH) | Weight gain at 75% (%) ([1]; spray dried salts, 75% RH) | Tg (° C.) [2]
1 | CC(C)c1nc(CN(C)C(=O)N[C@@H](CCN2CCOCC2)C(=O)N[C@H](CC[C@H](Cc2ccccc2)NC(=O)OCc2cncs2)Cc2ccccc2)cs1.CCS(=O)(=O)O | 8.78% | Yes | 16.2% | Yes | −0.23 °C | 37 °C |  |  |  |  | 
2 | CC(C)c1nc(CN(C)C(=O)N[C@@H](CCN2CCOCC2)C(=O)N[C@H](CC[C@H](Cc2ccccc2)NC(=O)OCc2cncs2)Cc2ccccc2)cs1.CC1(C)C2CCC1(CS(=O)(=O)O)C(=O)C2 [camphorosulfonate] | 2.99% | No | 5.9% | Yes | 66 °C | 66 °C |  |  |  |  | 
3 | CC(C)c1nc(CN(C)C(=O)N[C@@H](CCN2CCOCC2)C(=O)N[C@H](CC[C@H](Cc2ccccc2)NC(=O)OCc2cncs2)Cc2ccccc2)cs1 [citrate] | 3.17% | No | 6.5% | Partial | 59 °C | 60 °C |  |  |  |  | 
4 | CC(C)c1nc(CN(C)C(=O)N[C@@H](CCN2CCOCC2)C(=O)N[C@H](CC[C@H](Cc2ccccc2)NC(=O)OCc2cncs2)Cc2ccccc2)cs1.O=C(O)c1cc(O)ccc1O [gentisate] | 2.17% | No | 5.2% | No | 62 °C | 62 °C | no | 3.1% | partial | 5.6% | 61 °C
5 | CC(C)c1nc(CN(C)C(=O)N[C@@H](CCN2CCOCC2)C(=O)N[C@H](CC[C@H](Cc2ccccc2)NC(=O)OCc2cncs2)Cc2ccccc2)cs1.O=C(O)CNC(=O)c1ccccc1 [hippurate] | 3.37% | Partial | 5.61% | Yes | 31 °C | 44 °C |  |  |  |  | 
6 | CC(C)c1nc(CN(C)C(=O)N[C@@H](CCN2CCOCC2)C(=O)N[C@H](CC[C@H](Cc2ccccc2)NC(=O)OCc2cncs2)Cc2ccccc2)cs1.Cl [hydrochloride] | 4.32% | Partial | 6.92% | Yes | 34 °C | 59 °C | partial | 7.8% | yes | 9.4% | 35 °C
7 | O=C(O)CCC(=O)C(=O)O [ketoglutarate] | 3.27% | Yes | 5.23% | Yes | 24 °C | 42 °C |  |  |  |  | 
8 | CC(C)c1nc(CN(C)C(=O)N[C@@H](CCN2CCOCC2)C(=O)N[C@H](CC[C@H](Cc2ccccc2)NC(=O)OCc2cncs2)Cc2ccccc2)cs1.CC(O)C(=O)O [lactate] |  |  | 5.76% | Yes | 2 °C | 17 °C |  |  |  |  | 
9 | CC(C)c1nc(CN(C)C(=O)N[C@@H](CCN2CCOCC2)C(=O)N[C@H](CC[C@H](Cc2ccccc2)NC(=O)OCc2cncs2)Cc2ccccc2)cs1.O=C(O)CC(=O)O [malonate] | 3.43% | Yes | 6.18% | Yes | 14 °C | 36 °C |  |  |  |  | 
10 | CC(C)c1nc(CN(C)C(=O)N[C@@H](CCN2CCOCC2)C(=O)N[C@H](CC[C@H](Cc2ccccc2)NC(=O)OCc2cncs2)Cc2ccccc2)cs1.O=C(O)C(=O)O.O=C(O)C(=O)O [oxalate] | 4.38% | Partial | 9.36% | Yes | 34 °C | 46 °C |  |  |  |  | 
11 | CC(C)c1nc(CN(C)C(=O)N[C@@H](CCN2CCOCC2)C(=O)N[C@H](CC[C@H](Cc2ccccc2)NC(=O)OCc2cncs2)Cc2ccccc2)cs1.O=P(O)(O)O [phosphate] | 4.52% | No | 7.9% | Partial | 66 °C | 69 °C | no | 4.7% | yes | 8.0% | 92 °C
12 | CC(C)c1nc(CN(C)C(=O)N[C@@H](CCN2CCOCC2)C(=O)N[C@H](CC[C@H](Cc2ccccc2)NC(=O)OCc2cncs2)Cc2ccccc2)cs1.O=C1NS(=O)(=O)c2ccccc21 [saccharinate] | 1.89% | No | 4.09% | Yes | 37 °C | 56 °C | no |  | yes | 4.0% | 36.4 °C
13 | CC(C)c1nc(CN(C)C(=O)N[C@@H](CCN2CCOCC2)C(=O)N[C@H](CC[C@H](Cc2ccccc2)NC(=O)OCc2cncs2)Cc2ccccc2)cs1.O=C(O)CCC(=O)O [succinate] | 3.95% | Yes | 6.09% | Yes | 16 °C | 35 °C |  |  |  |  | 
14 | O=S(=O)(O)O [sulfate] |  | Partial |  | Yes | 71 °C | 71 °C |  |  |  |  | 
15 | CC(C)c1nc(CN(C)C(=O)NC(CCN2CCOCC2)C(=O)NC(CCC(Cc2ccccc2)NC(=O)OCc2cncs2)Cc2ccccc2)cs1.O=C(O)c1ccc2ccccc2c1O (centres unmarked) [xinafoate] | 0.29% | No | 1.97% | No | 49 °C | 51 °C | no | 2.6% | no | 3.3% | 42 °C
16 | ascorbate | 3.23% | No | 7.56% | Yes | 42 °C | 60 °C |  |  |  |  | 
17 | benzoate | 1.99% | Yes | 3.63% | Yes | 14 °C | 23 °C |  |  |  |  | 
18 | dichloroacetate | 3.36% | Yes | 7.3% | Yes |  | 34 °C |  |  |  |  | 
19 | fumarate | 2.11% | No | 6.02% | Yes | 37 °C | 51 °C | no | 3.2% | yes | 6.0% | 31 °C
20 | maleate | 4.41% | Yes | 6.67% | Yes | 24 °C | 37 °C |  |  |  |  | 
21 | tartarate | 3.23% | No | 7.6% | Partial | 44 °C | 66 °C | no | 5.8% | yes | 6.3% | 67 °C
22 | tosylate | 3.11% | Partial | 6.5% | Yes | 32 °C | 46 °C |  |  |  |  | 
